Laboratory results taken from PMC3937211, “Serine Carboxypeptidase SCPEP1 and Cathepsin A Play Complementary Roles in Regulation of Vasoconstriction via Inactivation of Endothelin-1” (PLoS Genetics, 2014).
No end group written: not given here.

Assays:
[1] = tested on: rats; conditions: induced by monocrotaline in rats; ref [33]; cited from earlier work
Description: The anti-hypertensive effect of retinoic acid tre ...

[2] = tested on: mesenteric arteries; assay: Vessel reactivity ex vivo; parameters: species or system mouse; conditions: isolated mesenteric arteries; WT, Scpep1^−/−, CathA^S190A, DD; drugs added extraluminally
Description: Vessel reactivity ex vivo was analyzed as described, [40]. Briefly, male mice were sacrificed at five months and their mesenteric arteries were isolated and mounted onto glass capillaries in an artereograph chamber filled with cold oxygenated Krebs solution (118.6 mM NaCl, 4.7 mM KCl, 1.2 mM KH2PO4, 1.2 mM MgSO4, 25.1 mM NaHCO3, 26 µM EDTA, 0.18% glucose, 2.5 mM CaCl2). The arteries were constantly perfused intraluminally with Krebs solution at 30 mmHg. After 45 minutes of equilibration vascular reactivity was measured in response to Norepinephrine (Sigma A-0937, 10^−9–10^−5 M), Acetylcholine (Sigma A-6625, 10^−9–10^−4 M), Sodium Nitroprusside (Calbiochem 56538, 10^−9–10^−4 M), Endothelin-1 (American Peptide Company 88-1-10, 10^−11–10^−8 M) and AI, (American Peptide Company 12-1-10, 10^−8–10^−4 M). Drugs were added extraluminally with a 30 min washout period in between each drug, during which the arteries were able to re-equilibrate to a baseline. To test vasodilatation arteries were pre-contracted with NE to 70% of their equilibration diameter. At least 3 concentration response curves were conducted for each vessel and at least 6 animals were studied for each genotype.

[3] = tested on: MLC-2 phosphorylation in AVSMC (ETR-A, ETR-B); assay: Myosin light chain 2 phosphorylation by Western blot; type: cell-based, mouse; conditions: WT AVSMC, 30 min pre-treatment with 2 µM antagonist, then 5 min 100 nM ET-1, 3 independent experiments
Description: To verify at the molecular level if AVSMC from CathA^S190A/Scpep1^−/− mice have increased reactivity to ET-1, we studied intracellular signalling events in these cells in response to ET-1. ET-1 interacts with G-protein-associated endothelin type A (ETR-A) and type B (ETR-B) receptors on the surface of AVSMC. Activation of the receptors induces phospholipase C and increases the intracellular Ca^2+ level leading to activation of myosin light chain kinase that phosphorylates myosin light chain (MLC) [21]–[24]. This causes contraction of myosin filaments and shrinkage of the cells. We therefore, compared the level of MLC phosphorylation in AVSMC before or after treatment with ET-1 for the 4 strains of mice. AVSMC cultured overnight in serum-free medium were treated with or without 100 nM ET-1, harvested and analyzed by Western blot using antibodies against MLC-2 phosphorylated at Thr^18 and Ser^19 residues or against total MLC protein.
Figure 5 Cultured AVSMC from mice with combined CathA/Scpep1 deficiency show increased reactivity to ET-1. […] Total protein extracts were analyzed by Western blotting using antibodies specific for phosphorylated (pThr^18/Ser^19-MLC) and total MLC-2 protein. […] Total protein extracts were analyzed by Western blotting using antibodies specific for phosphorylated and total MLC-2 protein. […]

[4] = product of ET-1 cleavage by CathA in vitro; ref [13], [14]; cited from earlier work
Description: The bioavailability and potency of AII and ET-1 can be regulated through many factors such as alteration of receptor density and affinity, up- and down-regulation of peptide synthesis or release, enzymatic activation (ACE and ACE2 for AII, ECE and MMP-2 for ET-1 [8]), or degradation (neutral endopeptidase NEP for ET-1 [9]–[11]). Previously we have shown that circulating ET-1 is inactivated by lysosomal carboxypeptidase, cathepsin A (CathA) widely distributed in mammalian tissues (reviewed in [12]). The majority of CathA in the cell is found in the lysosome but significant pool of the e ...

Compound | differences in vessel reactivity between the four groups of mice [2] | other results
CC1=C(/C=C/C(C)=C/C=C/C(C)=C/C(=O)O)C(C)(C)CCC1 [all-trans retinoic acid] | – | effect on pulmonary hypertension [1]: inhibit pulmonary hypertension
angiotensin I (DRVYIHPFHL; Angiotensin-1; UniProt P01019 25-34, looked up) [AI, precursor of vasoconstrictive peptide AII; American Peptide Company 12-1-10] | no differences | –
NC[C@H](O)c1ccc(O)c(O)c1 [NE, norepinephrine] | no differences | –
BQ788 | – | effect on ET-1-induced MLC-2 phosphorylation [3]: blocked
CC(=O)OCC[N+](C)(C)C [ACh, acetylcholine] | no differences | –
des-Trp21-endothelin-1 (CSCSSLMDKECVYFCHLDII; ends and bridges not checked; cysteine pairing not given here; UniProt P05305 53-72, looked up, fragment) | – | biological activity [4]: biologically inactive
